US11964973B2 (priority 2019, dated 2024)
Like-named read-outs stand apart in the source and are kept apart here.

Columns and labels:
DGKα = DGKα (Homo sapiens (Human), UniProt P23743); test: biochemical; assay type: biochemical
[1] = system: Human venous whole blood (IFN-γ); test: Human whole blood IFN-γ assay; assay type: cell-based
Description: Assay 10: Human Whole Blood IFN-γ Assay
Human venous whole blood (22.5 μL per well), obtained from healthy donors, was pre-treated with compounds for one hour at 37° C. in a humidified 95% air/5% CO2 incubator. The blood was stimulated with 2.5 μL anti-human CD3 and anti-CD28 mAb at a final concentration of 1 μg/mL each for 24 hours at 37° C. IFN-γ in the supernatants was measured using AlphLISA kit (Cat #AL217).

human DGKζ = human DGKζ (Homo sapiens (Human), UniProt Q13574); test: biochemical; assay type: biochemical
Chain of human DGKζ (Q13574 whole entry, looked up): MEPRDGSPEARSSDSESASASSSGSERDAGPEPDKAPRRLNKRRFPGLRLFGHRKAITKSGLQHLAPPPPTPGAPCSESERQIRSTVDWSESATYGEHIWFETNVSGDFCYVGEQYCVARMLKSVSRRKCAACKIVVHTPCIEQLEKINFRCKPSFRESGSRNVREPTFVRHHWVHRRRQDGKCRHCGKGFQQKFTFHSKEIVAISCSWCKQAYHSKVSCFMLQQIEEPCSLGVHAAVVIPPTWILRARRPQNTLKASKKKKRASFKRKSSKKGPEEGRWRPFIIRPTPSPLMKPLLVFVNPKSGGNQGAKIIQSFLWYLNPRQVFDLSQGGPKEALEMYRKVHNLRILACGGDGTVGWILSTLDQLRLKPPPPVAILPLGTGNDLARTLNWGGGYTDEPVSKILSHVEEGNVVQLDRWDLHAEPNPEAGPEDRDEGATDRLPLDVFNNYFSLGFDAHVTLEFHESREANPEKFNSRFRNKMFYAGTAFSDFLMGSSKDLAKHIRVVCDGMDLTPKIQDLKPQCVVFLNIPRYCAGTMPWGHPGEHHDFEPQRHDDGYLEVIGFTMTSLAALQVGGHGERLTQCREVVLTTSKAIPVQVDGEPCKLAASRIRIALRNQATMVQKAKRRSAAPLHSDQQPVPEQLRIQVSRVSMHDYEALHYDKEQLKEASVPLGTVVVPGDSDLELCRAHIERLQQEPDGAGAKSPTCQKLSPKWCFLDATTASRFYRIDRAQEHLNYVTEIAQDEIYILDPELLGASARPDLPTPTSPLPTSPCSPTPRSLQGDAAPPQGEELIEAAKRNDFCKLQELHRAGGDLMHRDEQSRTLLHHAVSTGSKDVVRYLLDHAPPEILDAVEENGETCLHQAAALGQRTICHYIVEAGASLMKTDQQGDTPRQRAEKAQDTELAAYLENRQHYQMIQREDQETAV

[2] = liposome (LIPGLO) assay, read-out: DGKα LIPGLO IC50
[3] = human whole blood, anti-CD3 plus anti-CD28, 24 hours, read-out: INFg Whole Blood Normalized Agonist EC50
[4] = liposome (LIPGLO) assay, read-out: DGKζ LIPGLO IC50
[5] = Table A, liposome (LIPGLO) assay, read-out: DGKα
[6] = Table A, liposome (LIPGLO) assay, read-out: DGKζ
[7] = Homo sapiens, 24 h, human whole blood, anti-CD3 plus anti-CD28, 24 hours, read-out: INFg Whole Blood Normalized Agonist EC50

Chain of DGKα (P23743 whole entry, looked up): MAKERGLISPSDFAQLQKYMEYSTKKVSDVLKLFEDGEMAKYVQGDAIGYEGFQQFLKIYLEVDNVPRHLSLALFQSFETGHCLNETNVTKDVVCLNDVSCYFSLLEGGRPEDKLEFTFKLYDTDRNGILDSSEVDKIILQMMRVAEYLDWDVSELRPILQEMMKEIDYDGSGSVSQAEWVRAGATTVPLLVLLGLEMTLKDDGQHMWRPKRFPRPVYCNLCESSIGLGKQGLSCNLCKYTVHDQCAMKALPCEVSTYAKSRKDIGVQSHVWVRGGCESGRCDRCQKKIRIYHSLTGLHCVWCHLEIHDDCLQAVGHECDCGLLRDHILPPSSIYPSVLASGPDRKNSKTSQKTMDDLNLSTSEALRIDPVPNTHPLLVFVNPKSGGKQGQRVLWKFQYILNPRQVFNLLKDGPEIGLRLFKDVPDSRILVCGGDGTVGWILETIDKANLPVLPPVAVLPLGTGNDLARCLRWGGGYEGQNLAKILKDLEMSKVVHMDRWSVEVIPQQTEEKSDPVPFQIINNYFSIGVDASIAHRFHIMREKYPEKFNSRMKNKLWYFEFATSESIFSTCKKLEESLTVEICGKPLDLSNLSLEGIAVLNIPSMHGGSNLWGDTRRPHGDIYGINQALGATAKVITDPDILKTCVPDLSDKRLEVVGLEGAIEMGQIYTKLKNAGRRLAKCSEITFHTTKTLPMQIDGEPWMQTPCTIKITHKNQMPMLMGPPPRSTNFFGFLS

| SMILES | IC50 (DGKα; [2]) | IC50 (human DGKζ; [4]) | EC50 [1, 7] | also measured |
| --- | --- | --- | --- | --- |
| Cc1ccc(O[C@@H]2CCN(c3cc(=O)n(C)c4ccc(C#N)nc34)C[C@H]2C)cc1 (single isomer, unassigned) [Example 121] | 1.8 µM | 9.9 µM | – | EC50 [1, 3]: 6.7 µM |
| C[C@@H]1CN(c2cc(=O)n(C)c3ccc(C#N)nc23)CC[C@H]1Oc1ccc(F)cc1C(F)(F)F (single isomer, unassigned) [Example 118] | 0.25 µM | 52 µM | – | EC50 [1, 3]: 4.7 µM |
| CC(C)c1ccc(O[C@H]2CCN(c3cc(=O)n(C)c4ccc(C#N)nc34)C[C@H]2C)cc1 (single isomer, unassigned) [Example 183] | – | – | – | IC50 (DGKα; [5]): 0.71 µM; EC50 ([1]; Homo sapiens, human whole blood IFN-γ, read-out: INFg Whole Blood): 2.6 µM; IC50 (human DGKζ; [6]): 0.94 µM |
| CCC(C)(C)c1ccc(O[C@H]2CCN(c3cc(=O)n(C)c4ccc(C#N)nc34)C[C@H]2C)cc1 [Example 169, 5-methyl-8-((3R,4S)-3-methyl-4-(4-(tert-pentyl)phenoxy)piperidin-1-yl)-6-oxo-5,6-dihydro-1,5-naphthyridine-2-carbonitrile] | – | – | 1.7 µM | IC50 (DGKα; read-out: DGKα LIPGLO IC50): 0.6 µM; IC50 (human DGKζ; read-out: DGKζ LIPGLO IC50): 1.4 µM |
| Cn1c(=O)cc(N2CCC(Oc3ccc(Cl)cn3)CC2)c2nc(C#N)ccc21 [Example 67, 8-(4-((5-chloropyridin-2-yl)oxy)piperidin-1-yl)-5-methyl-6-oxo-5,6-dihydro-1,5-naphthyridine-2-carbonitrile] | 1.6 µM | 7.1 µM | 2.7 µM | – |
| CC[C@@H]1CN(c2cc(=O)n(C)c3ccc(C#N)nc23)CC[C@H]1Oc1cccc(C(F)(F)F)c1 (single isomer, unassigned) [Example 142] | 4.7 µM | 1.1 µM | – | EC50 [1, 3]: 3 µM |
| C[C@@H]1CN(c2cc(=O)n(C)c3ccc(C#N)nc23)CC[C@H]1Oc1ccc(F)cc1C(F)(F)F [Example 116, 8-((3R,4R)-4-(4-fluoro-2-(trifluoromethyl)phenoxy)-3-methylpiperidin-1-yl)-5-methyl-6-oxo-5,6-dihydro-1,5-naphthyridine-2-carbonitrile] | 0.45 µM | 13 µM | 4.7 µM | – |
| Cc1cccc(O[C@@H]2CCN(c3cc(=O)n(C)c4ccc(C#N)nc34)C[C@H]2C)c1 (single isomer, unassigned) [Example 109] | 0.12 µM | 29 µM | – | EC50 [1, 3]: 4.2 µM |
| C[C@@H]1CN(c2c(C#N)c(=O)n(C)c3ccc(C#N)nc23)CC[C@@H]1Oc1ccc(C(F)(F)F)cc1 [Example 191, 5-methyl-8-((3R,4S)-3-methyl-4-(4-(trifluoromethyl)phenoxy)piperidin-1-yl)-6-oxo-5,6-dihydro-1,5-naphthyridine-2,7-dicarbonitrile] | – | – | – | IC50 (DGKα; [5]): 1.8 µM; EC50 ([1]; human whole blood IFN-γ, read-out: INFg Whole Blood): 20 µM; IC50 (human DGKζ; [6]): 8.6 µM |
| C[C@@H]1CN(c2cc(=O)n(C)c3ccc(C#N)nc23)CC[C@H]1Oc1ccc(C2CCCC2)cc1 (single isomer, unassigned) [Example 102] | 0.068 µM | 83 µM | – | EC50 [1, 3]: 3.3 µM |
| CCC(C)(C)c1ccc(O[C@H]2CCN(c3cc(=O)n(C)c4ccc(C#N)nc34)C[C@H]2C)cc1 (single isomer, unassigned) [Example 171] | – | – | – | IC50 (DGKα; read-out: DGKα LIPGLO IC50): 1.4 µM; EC50 [1, 3]: 3 µM; IC50 (human DGKζ; read-out: DGKζ LIPGLO IC50): 3.7 µM |
| CCCc1ccc(OC2CCN(c3cc(=O)n(C)c4ccc(C#N)nc34)CC2)cc1 [Example 57, 5-methyl-6-oxo-8-(4-(4-propylphenoxy)piperidin-1-yl)-5,6-dihydro-1,5-naphthyridine-2-carbonitrile] | 0.73 µM | 6.1 µM | 4.3 µM | – |
| Cn1c(=O)cc(N2CCC(Oc3ccc4c(c3)CCCC4)CC2)c2nc(C#N)ccc21 [Example 61, 5-methyl-6-oxo-8-(4-((5,6,7,8-tetrahydronaphthalen-2-yl)oxy)piperidin-1-yl)-5,6-dihydro-1,5-naphthyridine-2-carbonitrile] | 0.73 µM | 4.7 µM | 8.5 µM | – |
| CC(C)c1ccc(O[C@H]2CCN(c3cc(=O)n(C)c4ccc(C#N)nc34)C[C@H]2C)cc1 [Example 182, 8-((3R,4S)-4-(4-isopropylphenoxy)-3-methylpiperidin-1-yl)-5-methyl-6-oxo-5,6-dihydro-1,5-naphthyridine-2-carbonitrile] | 1.1 µM | 1.8 µM | – | EC50 [1, 3]: 2.8 µM |
| Cn1c(=O)cc(N2CCC(Oc3ccc(C4CCCC4)cc3)CC2)c2nc(C#N)ccc21 [Example 58, 8-(4-(4-cyclopentylphenoxy)piperidin-1-yl)-5-methyl-6-oxo-5,6-dihydro-1,5-naphthyridine-2-carbonitrile] | 0.34 µM | 2.9 µM | 5.9 µM | – |
| CC(C)c1ccc(O[C@@H]2CCN(c3cc(=O)n(C)c4ccc(C#N)nc34)C[C@H]2C)cc1 (single isomer, unassigned) [Example 95] | 0.4 µM | 5 µM | – | EC50 [1, 3]: 1 µM |
| C[C@@H]1CN(c2cc(=O)n(C)c3ccc(C#N)nc23)CC[C@H]1Oc1cccc(C2CC2)c1 [Example 91, 8-((3R,4R)-4-(3-cyclopropylphenoxy)-3-methylpiperidin-1-yl)-5-methyl-6-oxo-5,6-dihydro-1,5-naphthyridine-2-carbonitrile] | 0.065 µM | 14 µM | 4.4 µM | – |
| Cn1c(=O)cc(N2CCC(Oc3ccc(C4CC4)cc3)CC2)c2nc(C#N)ccc21 [Example 59, 8-(4-(4-cyclopropylphenoxy)piperidin-1-yl)-5-methyl-6-oxo-5,6-dihydro-1,5-naphthyridine-2-carbonitrile] | 1 µM | 3.7 µM | 6.4 µM | – |
| C[C@@H]1CN(c2cc(=O)n(C)c3ccc(C#N)nc23)CC[C@@H]1Oc1cccc(C2CC2)c1 [Example 179, 8-((3R,4S)-4-(3-cyclopropylphenoxy)-3-methylpiperidin-1-yl)-5-methyl-6-oxo-5,6-dihydro-1,5-naphthyridine-2-carbonitrile] | 0.069 µM | 1.2 µM | 2.4 µM | – |
| Cn1c(=O)cc(N2CCC(Oc3cnc4ccccc4n3)CC2)c2nc(C#N)ccc21 [Example 69, 5-methyl-6-oxo-8-(4-(quinoxalin-2-yloxy)piperidin-1-yl)-5,6-dihydro-1,5-naphthyridine-2-carbonitrile] | 5.7 µM | 1.4 µM | 17 µM | – |
| Cc1cccc(O[C@@H]2CCN(c3c(C#N)c(=O)n(C)c4ccc(C#N)nc34)C[C@H]2C)c1 [Example 136, 5-methyl-8-((3R,4R)-3-methyl-4-(m-tolyloxy)piperidin-1-yl)-6-oxo-5,6-dihydro-1,5-naphthyridine-2,7-dicarbonitrile] | – | ≥ 250 µM | 20 µM | IC50 (DGKα; DGKα LIPGLO IC50): 0.81 µM |
| Cn1c(=O)cc(N2CCC(Oc3nncc4ccccc34)CC2)c2nc(C#N)ccc21 [Example 75, 5-methyl-6-oxo-8-(4-(phthalazin-1-yloxy)piperidin-1-yl)-5,6-dihydro-1,5-naphthyridine-2-carbonitrile] | 27 µM | 18 µM | 20 µM | – |
| Cn1c(=O)cc(N2CCC(Oc3ccc(C4CCCCC4)cc3)CC2)c2nc(C#N)ccc21 [Example 63, 8-(4-(4-cyclohexylphenoxy)piperidin-1-yl)-5-methyl-6-oxo-5,6-dihydro-1,5-naphthyridine-2-carbonitrile] | 0.74 µM | 38 µM | – | – |
| C[C@@H]1CN(c2cc(=O)n(C)c3ccc(C#N)nc23)CC[C@H]1Oc1c(F)cc(F)cc1F [Example 131, 5-methyl-8-((3R,4R)-3-methyl-4-(2,4,6-trifluorophenoxy)piperidin-1-yl)-6-oxo-5,6-dihydro-1,5-naphthyridine-2-carbonitrile] | 3.1 µM | ≥ 250 µM | – | – |
| CCC(C)(C)c1ccc(O[C@@H]2CCN(c3c(C#N)c(=O)n(C)c4ccc(C#N)nc34)C[C@H]2C)cc1 (single isomer, unassigned) [Example 230, 5-methyl-8-(trans-3-methyl-4-(4-(tert-pentyl)phenoxy)piperidin-1-yl)-6-oxo-5,6-dihydro-1,5-naphthyridine-2,7-dicarbonitrile (rel)] | – | – | – | IC50 (DGKα; [5]): 3.3 µM; IC50 (human DGKζ; [6]): ≥ 250 µM |
| C[C@@H]1CN(c2cc(=O)n(C)c3ccc(C#N)nc23)CC[C@@H]1Oc1cccc(C2CC2)c1 [Example 181, 8-((3R,4S)-4-(3-cyclopropylphenoxy)-3-methylpiperidin-1-yl)-5-methyl-6-oxo-5,6-dihydro-1,5-naphthyridine-2-carbonitrile] | 0.061 µM | 1.4 µM | – | – |
| CC[C@@H]1CN(c2cc(=O)n(C)c3ccc(C#N)nc23)CC[C@H]1Oc1cccc(OC(F)(F)F)c1 (single isomer, unassigned) [Example 163] | 0.042 µM | 0.36 µM | – | – |
| CC[C@@H]1CN(c2cc(=O)n(C)c3ccc(C#N)nc23)CC[C@H]1Oc1cccc(C(C)C)c1 (racemic) [Example 137, 8-((3R,4R)-3-ethyl-4-(3-isopropylphenoxy)piperidin-1-yl)-5-methyl-6-oxo-5,6-dihydro-1,5-naphthyridine-2-carbonitrile] | 0.036 µM | 0.92 µM | – | – |
| Cn1c(=O)cc(N2CCC(Oc3ccc(C(F)(F)F)cn3)CC2)c2nc(C#N)ccc21 [Example 77, 5-methyl-6-oxo-8-(4-((5-(trifluoromethyl)pyridin-2-yl)oxy)piperidin-1-yl)-5,6-dihydro-1,5-naphthyridine-2-carbonitrile] | 3 µM | 3 µM | – | – |
